# Source: ChEMBL document CHEMBL1126421, “Total synthesis of myo-inositol-1-phosphate-4,5-pyrophosphate, a novel second messenger analogue, via myo-inositol-1-phosphate-4,5-bisphosphorothioate” (Bioorg Med Chem Lett, 1992)
# Target: T1, Inositol polyphosphate-5-phosphatase A (Homo sapiens, UniProt Q14642)
# T1 sequence (Q14642 whole entry): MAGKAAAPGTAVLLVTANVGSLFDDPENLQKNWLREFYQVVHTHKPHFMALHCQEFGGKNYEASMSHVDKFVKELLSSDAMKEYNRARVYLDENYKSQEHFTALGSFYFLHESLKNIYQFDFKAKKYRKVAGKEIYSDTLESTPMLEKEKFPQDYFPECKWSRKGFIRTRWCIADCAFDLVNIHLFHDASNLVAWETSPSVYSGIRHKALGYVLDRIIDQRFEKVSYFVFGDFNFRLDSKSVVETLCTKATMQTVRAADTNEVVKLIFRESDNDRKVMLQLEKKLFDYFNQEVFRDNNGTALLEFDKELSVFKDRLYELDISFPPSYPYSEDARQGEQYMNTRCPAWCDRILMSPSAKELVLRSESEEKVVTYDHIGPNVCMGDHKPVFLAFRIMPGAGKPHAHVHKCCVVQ
# Assay: The compound was evaluated for inhibition of Inositol-1,4,5-trisphosphate 5-phosphatase
smiles,measurement,value
O=P(O)(O)OC1C(O)C(O)C(OP(O)(O)=S)C(OP(O)(O)=S)C1O (stereo unspecified),Ki,1300 nM
